Measurements: US20230085307A1, “PYRIDAZINONE COMPOUND AND HERBICIDE” (NISSAN CHEMICAL CORPORATION, priority 2019, published 2023)

Tests used:
barnyard grass [1] = assay: Test Example 4: herbicidal effect by soil treatment (Table 19, symbol H); type: in vivo, barnyard grass (Echinochloa crus-galli); details: amount of applied herbicide 320 g/ha
Outline: (§1)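 Herbicidal effect was rated 3 weeks after treatment, using the scoring criteria of an earlier test. The compound, formulated as an emulsion and diluted in water to a set herbicide amount, had been sprayed uniformly on soil over freshly sown seeds. Growth took place in a greenhouse at 25° C. to 30° C.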

redroot pigweed [2] = assay: Test Example 4: herbicidal effect by soil treatment (Table 19, symbol N); type: in vivo, redroot pigweed (Amaranthus retroflexus); details: amount of applied herbicide 320 g/ha
Outline: as §1

blackgrass [3] = assay: Test Example 4: herbicidal effect by soil treatment (Table 19, symbol J); type: in vivo, blackgrass (Alopecurus myosuroides); details: amount of applied herbicide 320 g/ha
Outline: as §1

blackgrass [4] = assay: Test Example 5: herbicidal effect by foliage application, plastic box (Table 20, symbol J); type: in vivo, blackgrass (Alopecurus myosuroides); details: foliage application, evaluated three weeks after application
Outline: (§2)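 Foliar spray test: emulsion formulation diluted in water to a set application rate, sprayed onto 14-day-old plants raised in diluvial soil at 25° C to 30° C under glass. Both herbicidal effect and crop effect rated visually three weeks later.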

barnyard grass [5] = assay: Test Example 5: herbicidal effect by foliage application, plastic box (Table 20, symbol H); type: in vivo, barnyard grass (Echinochloa crus-galli); details: foliage application, evaluated three weeks after application
Outline: as §2

velvetleaf [6] = assay: Test Example 4: herbicidal effect by soil treatment (Table 19, symbol M); type: in vivo, velvetleaf (Abutilon theophrasti); details: amount of applied herbicide 320 g/ha
Outline: as §1

chickweed [7] = assay: Test Example 5: herbicidal effect by foliage application, plastic box (Table 20, symbol P); type: in vivo, common chickweed (Stellaria media); details: foliage application, evaluated three weeks after application
Outline: as §2

southern crabgrass [8] = assay: Test Example 5: herbicidal effect by foliage application, plastic box (Table 20, symbol F); type: in vivo, southern crabgrass (Digitaria ciliaris); details: foliage application, evaluated three weeks after application
Outline: as §2

persian speedwell [9] = assay: Test Example 4: herbicidal effect by soil treatment (Table 19, symbol R); type: in vivo, Persian speedwell (Veronica persica); details: amount of applied herbicide 320 g/ha
Outline: as §1

persian speedwell [10] = assay: Test Example 5: herbicidal effect by foliage application, plastic box (Table 20, symbol R); type: in vivo, Persian speedwell (Veronica persica); details: foliage application, evaluated three weeks after application
Outline: as §2

wild oat [11] = assay: Test Example 5: herbicidal effect by foliage application, plastic box (Table 20, symbol I); type: in vivo, wild oat (Avena fatua); details: foliage application, evaluated three weeks after application
Outline: as §2

rice flat sedge = assay: Test Example 3: herbicidal effect by foliage application, Wagner pot (Table 18, symbol E); type: in vivo, rice flat sedge (Cyperus iria); details: amount of applied herbicide 320 g/ha
Outline: (§3)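 Plants were sown in alluvial soil held under 0.1–0.5 cm standing water and grown 14 days in a greenhouse at 25–30 °C. An emulsifiable formulation, water-diluted to the set dose, was then sprayed onto the foliage, and effects were scored three weeks later using previously defined criteria.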

velvetleaf [12] = assay: Test Example 5: herbicidal effect by foliage application, plastic box (Table 20, symbol M); type: in vivo, velvetleaf (Abutilon theophrasti); details: foliage application, evaluated three weeks after application
Outline: as §2

windgrass [13] = assay: Test Example 4: herbicidal effect by soil treatment (Table 19, symbol L); type: in vivo, windgrass (Apera spica-venti); details: amount of applied herbicide 320 g/ha
Outline: as §1

Italian ryegrass [14] = assay: Test Example 4: herbicidal effect by soil treatment (Table 19, symbol K); type: in vivo, Italian ryegrass (Lolium multiflorum); details: amount of applied herbicide 320 g/ha
Outline: as §1

Chinese sprangletop = assay: Test Example 3: herbicidal effect by foliage application, Wagner pot (Table 18, symbol D); type: in vivo, chinese sprangletop (Leptochloa chinensis); details: amount of applied herbicide 320 g/ha
Outline: as §3

chickweed [15] = assay: Test Example 4: herbicidal effect by soil treatment (Table 19, symbol P); type: in vivo, common chickweed (Stellaria media); details: amount of applied herbicide 320 g/ha
Outline: as §1

lambsquarters [16] = assay: Test Example 5: herbicidal effect by foliage application, plastic box (Table 20, symbol O); type: in vivo, lambsquarters (Chenopodium album); details: foliage application, evaluated three weeks after application
Outline: as §2

lambsquarters [17] = assay: Test Example 4: herbicidal effect by soil treatment (Table 19, symbol O); type: in vivo, lambsquarters (Chenopodium album); details: amount of applied herbicide 320 g/ha
Outline: as §1

redroot pigweed [18] = assay: Test Example 5: herbicidal effect by foliage application, plastic box (Table 20, symbol N); type: in vivo, redroot pigweed (Amaranthus retroflexus); details: foliage application, evaluated three weeks after application
Outline: as §2

Italian ryegrass [19] = assay: Test Example 5: herbicidal effect by foliage application, plastic box (Table 20, symbol K); type: in vivo, Italian ryegrass (Lolium multiflorum); details: foliage application, evaluated three weeks after application
Outline: as §2

wild oat [20] = assay: Test Example 4: herbicidal effect by soil treatment (Table 19, symbol I); type: in vivo, wild oat (Avena fatua); details: amount of applied herbicide 320 g/ha
Outline: as §1

barnyard grass [21] = assay: Test Example 3: herbicidal effect by foliage application, Wagner pot (Table 18, symbol H); type: in vivo, barnyard grass (Echinochloa crus-galli); details: amount of applied herbicide 320 g/ha
Outline: as §3

green foxtail [22] = assay: Test Example 5: herbicidal effect by foliage application, plastic box (Table 20, symbol G); type: in vivo, green foxtail (Setaria viridis); details: foliage application, evaluated three weeks after application
Outline: as §2

southern crabgrass [23] = assay: Test Example 4: herbicidal effect by soil treatment (Table 19, symbol F); type: in vivo, southern crabgrass (Digitaria ciliaris); details: amount of applied herbicide 320 g/ha
Outline: as §1

windgrass [24] = assay: Test Example 5: herbicidal effect by foliage application, plastic box (Table 20, symbol L); type: in vivo, windgrass (Apera spica-venti); details: foliage application, evaluated three weeks after application
Outline: as §2

green foxtail [25] = assay: Test Example 4: herbicidal effect by soil treatment (Table 19, symbol G); type: in vivo, green foxtail (Setaria viridis); details: amount of applied herbicide 320 g/ha
Outline: as §1

SMILES	herbicidal effect on H: barnyard grass (barnyard grass [1])	herbicidal effect on N: redroot pigweed (redroot pigweed [2])	herbicidal effect on J: blackgrass (blackgrass [3])	herbicidal effect on M: velvetleaf (velvetleaf [6])	herbicidal effect on R: persian speedwell (persian speedwell [9])	herbicidal effect on E: rice flat sedge (rice flat sedge)	herbicidal effect on L: windgrass (windgrass [13])	herbicidal effect on K: Italian ryegrass (Italian ryegrass [14])	herbicidal effect on D: Chinese sprangletop (Chinese sprangletop)	herbicidal effect on P: chickweed (chickweed [15])	herbicidal effect on O: lambsquarters (lambsquarters [17])	herbicidal effect on I: wild oat (wild oat [20])	herbicidal effect on H: barnyard grass (barnyard grass [21])	herbicidal effect on F: southern crabgrass (southern crabgrass [23])	herbicidal effect on G: green foxtail (green foxtail [25])	further results
CSc1cccc(-c2sc3ccc(F)cc3c2-c2c(O)c(C)nn(C)c2=O)c1 [2-240]	2 (Herbicidal rate of 20% or more and less than 40%)	4 (Herbicidal rate of 70% or more and less than 90%)	0 (Herbicidal rate of 5% or less (almost no effect))	1 (Herbicidal rate of 5% or more and less than 20%)	5 (Herbicidal rate of 90% or more (almost completely withered))	4 (Herbicidal rate of 70% or more and less than 90%)	0 (Herbicidal rate of 5% or less (almost no effect))	0 (Herbicidal rate of 5% or less (almost no effect))	3 (Herbicidal rate of 40% or more and less than 70%)	1 (Herbicidal rate of 5% or more and less than 20%)	3 (Herbicidal rate of 40% or more and less than 70%)	1 (Herbicidal rate of 5% or more and less than 20%)	4 (Herbicidal rate of 70% or more and less than 90%)	4 (Herbicidal rate of 70% or more and less than 90%)	5 (Herbicidal rate of 90% or more (almost completely withered))	herbicidal effect on J: blackgrass (criteria 0-5) (blackgrass [4]; 320 g/ha): 3 (Herbicidal rate of 40% or more and less than 70%); herbicidal effect on H: barnyard grass (criteria 0-5) (barnyard grass [5]; 320 g/ha): 3 (Herbicidal rate of 40% or more and less than 70%); herbicidal effect on P: chickweed (criteria 0-5) (chickweed [7]; 320 g/ha): 5 (Herbicidal rate of 90% or more (almost completely withered)); herbicidal effect on F: southern crabgrass (criteria 0-5) (southern crabgrass [8]; 320 g/ha): 5 (Herbicidal rate of 90% or more (almost completely withered)); herbicidal effect on R: persian speedwell (criteria 0-5) (persian speedwell [10]; 320 g/ha): 5 (Herbicidal rate of 90% or more (almost completely withered)); herbicidal effect on I: wild oat (criteria 0-5) (wild oat [11]; 320 g/ha): 5 (Herbicidal rate of 90% or more (almost completely withered)); herbicidal effect on M: velvetleaf (criteria 0-5) (velvetleaf [12]; 320 g/ha): 4 (Herbicidal rate of 70% or more and less than 90%); herbicidal effect on O: lambsquarters (criteria 0-5) (lambsquarters [16]; 320 g/ha): 5 (Herbicidal rate of 90% or more (almost completely withered)); herbicidal effect on N: redroot pigweed (criteria 0-5) (redroot pigweed [18]; 320 g/ha): 5 (Herbicidal rate of 90% or more (almost completely withered)); herbicidal effect on K: Italian ryegrass (criteria 0-5) (Italian ryegrass [19]; 320 g/ha): 3 (Herbicidal rate of 40% or more and less than 70%); herbicidal effect on G: green foxtail (criteria 0-5) (green foxtail [22]; 320 g/ha): 5 (Herbicidal rate of 90% or more (almost completely withered)); herbicidal effect on L: windgrass (criteria 0-5) (windgrass [24]; 320 g/ha): 4 (Herbicidal rate of 70% or more and less than 90%)
Cc1nn(C)c(=O)c(-c2c(-c3ccc(OC(F)F)cc3)sc3ccc(F)cc23)c1OC(=O)N(C)C [2-291]	0 (Herbicidal rate of 5% or less (almost no effect))	3 (Herbicidal rate of 40% or more and less than 70%)	0 (Herbicidal rate of 5% or less (almost no effect))	0 (Herbicidal rate of 5% or less (almost no effect))	3 (Herbicidal rate of 40% or more and less than 70%)	2 (Herbicidal rate of 20% or more and less than 40%)	0 (Herbicidal rate of 5% or less (almost no effect))	0 (Herbicidal rate of 5% or less (almost no effect))	3 (Herbicidal rate of 40% or more and less than 70%)	4 (Herbicidal rate of 70% or more and less than 90%)	3 (Herbicidal rate of 40% or more and less than 70%)	0 (Herbicidal rate of 5% or less (almost no effect))	4 (Herbicidal rate of 70% or more and less than 90%)	0 (Herbicidal rate of 5% or less (almost no effect))	0 (Herbicidal rate of 5% or less (almost no effect))	J: blackgrass, herbicidal effect (criteria 0-5) (blackgrass [4]; AAH 320 g/ha): 3 (Herbicidal rate of 40% or more and less than 70%); H: barnyard grass, herbicidal effect (criteria 0-5) (barnyard grass [5]; AAH 320 g/ha): 0 (Herbicidal rate of 5% or less (almost no effect)); P: chickweed, herbicidal effect (criteria 0-5) (chickweed [7]; AAH 320 g/ha): 5 (Herbicidal rate of 90% or more (almost completely withered)); F: southern crabgrass, herbicidal effect (criteria 0-5) (southern crabgrass [8]; AAH 320 g/ha): 0 (Herbicidal rate of 5% or less (almost no effect)); R: persian speedwell, herbicidal effect (criteria 0-5) (persian speedwell [10]; AAH 320 g/ha): 5 (Herbicidal rate of 90% or more (almost completely withered)); I: wild oat, herbicidal effect (criteria 0-5) (wild oat [11]; AAH 320 g/ha): 0 (Herbicidal rate of 5% or less (almost no effect)); M: velvetleaf, herbicidal effect (criteria 0-5) (velvetleaf [12]; AAH 320 g/ha): 2 (Herbicidal rate of 20% or more and less than 40%); O: lambsquarters, herbicidal effect (criteria 0-5) (lambsquarters [16]; AAH 320 g/ha): 5 (Herbicidal rate of 90% or more (almost completely withered)); N: redroot pigweed, herbicidal effect (criteria 0-5) (redroot pigweed [18]; AAH 320 g/ha): 5 (Herbicidal rate of 90% or more (almost completely withered)); K: Italian ryegrass, herbicidal effect (criteria 0-5) (Italian ryegrass [19]; AAH 320 g/ha): 3 (Herbicidal rate of 40% or more and less than 70%); G: green foxtail, herbicidal effect (criteria 0-5) (green foxtail [22]; AAH 320 g/ha): 4 (Herbicidal rate of 70% or more and less than 90%); L: windgrass, herbicidal effect (criteria 0-5) (windgrass [24]; AAH 320 g/ha): 0 (Herbicidal rate of 5% or less (almost no effect))
